Reference: paper PMC12022980, “Rational Design of PROTAC Linkers Featuring Ferrocene as a Molecular Hinge to Enable Dynamic Conformational Changes” (Journal of the American Chemical Society, 2025)
In brackets after ≈: the same amount, converted by molar mass. Where two headings read alike, the source gives them in different places.

Tests used:
[1] = ChromLogD (chromatographic); format: physicochemical; conditions: HPLC on Hypersil GOLD-C18 column, pH 7.4
Protocol: (§1) For the permeabilised-cell assay, 10 µL of digitonin was added, and plates were incubated in darkness for 5 minutes to allow permeabilisation. In each well 10 µL of the 10x PROTAC and vehicle control dilutions were dispensed. A 100x NanoBRET tracer solution (50 µM for VHL permeabilised-cell assay) was prepared with 100% DMSO, then diluted to a 20x solution with tracer dilution buffer. A 5 µL volume of tracer was dispensed into each well at a final concentration of 0.5 µM, and the plate was mixed at 300 RPM for 15 seconds. Finally, 50 µL of a 3x substrate solution (8.8 µL NanoBRET Nano-Glo substrate and 3,500 µL Opti-MEM) was added, and plates were incubated for 1 minute at room temperature before reading on a GloMax Discover as […]
HiBiT Lytic Assay with Zosuquidar Co-treatment
A modified HiBiT lytic assay was used to assess the activity of zosuquidar on the BET degradation. […]
(§2) Luminescence was measured using the GloMax® Multiplex Luminescence and Fluorescence Protocol for 96-well plates. The luminescence signal for each well was normalised to the fluorescence signal and further normalised to the mean values from iPrOH-treated controls, then expressed as a ratio relative to the vehicle control. Curve fitting and DC50 values were determined in GraphPad Prism v.10.0.3 using nonlinear regression with a three-parameter logistic model to calculate DC50 values.
The stock solution of each test item was prepared from a 10mM stock in iPrOH, which was further diluted 1:50 with […] to obtain a 0.2 mM solution (4 µL of the test item stock solution is diluted with 196 µL DMSO) in insert vials. The samples were analysed on an HPLC system equipped with a HPLC-ThermoScientific Hypersil GOLD-C18 column (2.1 x 50 mm, 1.9 µm) and by MS detection using electrospray ionization (ESI) and Atmospheric Pressure Chemical Ionization (APCI) on a Shimadzu LCMS 2050. […]
(§3) of 1 mL/min and a column temperature of 40 °C. […] Data were analysed with Shimadzu Open Solution Data Browser to obtain the RTs of the peak for each individual compound and standards. […]

[2] = LogD7.4 shake flask (octanol/phosphate buffer); format: physicochemical; conditions: octanol/potassium phosphate buffer, pH 7.4
From the text: The modulation of lipophilicity could play a critical role in optimizing PROTACs. We thus utilized traditionally measured LogD values from shake flask experiments alongside chromatographically assessed ChromLogD values.[72] […] By incorporating ferrocene, permeability may be improved due to the feature of promoting IMHB-mediated compact conformations, while also balancing the lipophilicity of the polar ligand/PEG linkers. However, while sufficient lipophilicity is required for passive uptake over the cell membrane, it may also drive poor aqueous solubility.[73]
as §1
HiBiT Lytic Assay with Zosuquidar Co-treatment […]
as §2, with “values. […]” for “values.”
as §3
ChromLogD values for the compounds were then calculated based on the regression curve. […]

[3] = tested on: HCT116 cells; assay: Cell viability assay (CellTiter-Glo); format: cell-based; conditions: Homo sapiens, HCT-116, 72 h; read-out: IC50 ± S.D. HCT116
Protocol: (§4) Therefore, we assessed the impact of the BET-degrading FerroTAC AS6 on the viability of BET-sensitive HCT116 cells and HEK293 cells (Figure 6A). […]
(§5) room temperature and protected from light. Thereafter, the membranes were washed with TBS-T three times for 10 min, and protein bands were acquired using a ChemiDoc MP imaging system (Bio-Rad). Band quantification was performed using Image Lab software and reported as ratio of each protein band relative to […]
(§6) Peak elution was monitored using ultraviolet absorbance at 280 nm.

[4] = tested on: HEK293 cells; assay: Cell viability assay (CellTiter-Glo); format: cell-based; conditions: 72 h
Protocol: as §4, §5, §6

[5] = Mouse liver microsome stability; format: in vitro ADME; conditions: liver microsomes
Protocol: Mouse Liver Microsome Stability
Testing compound (1.5 μL) or reference compound (500 μM in 5% iPrOH and 95% acetonitrile) was mixed with 18.75 μL of 20 mg/mL liver microsome (Corning) and 479.75 μL of potassium phosphate buffer (0.1 M potassium phosphate buffer, 1 mM EDTA, pH 7.4). The reaction was started by mixing 30 μL of the above mixture (prewarmed to 37 °C) with 15 μL of 6 mM NADPH stock solution (prewarmed to 37 °C). After incubating for 5, 15, 30, or 45 min, 135 μL of acetonitrile containing internal standard was added to stop the reaction. For 0 min, the compound and microsome mixture were mixed with acetonitrile first before adding NADPH. After quenching, the reaction mixture was centrifuged, and the supernatant was taken and diluted for LC-MS

[6] = Plasma stability assay; format: in vitro ADME; conditions: mouse plasma; read-out: stability T1/2 in mouse plasma
Protocol: Frozen plasma was thawed at 37 °C and centrifuged at 3000 rpm for 8 min to remove clots, and the supernatant was used in the experiment. The pH of the plasma was recorded, and only the pH range between 7.4 and 8 was used. The plasma and compound solution were prewarmed to 37 °C. 10 µL of prewarmed testing compound or reference compound (procaine) solution (20 μM in 0.05 mM sodium phosphate buffer (pH 7.4) with 0.5% BSA) was mixed with 90 μL of plasma at different time points to allow for 5, 15, 30, 45, and 60 min of incubation time. For 0 min, the plasma was mixed with vehicle only. Acetonitrile was added to the compound and plasma mixture to quench the reaction, and the resulting mixture was centrifuged (5594g for 15 min). The

[7] = Kinetic solubility in phosphate buffer and FeSSIF; format: physicochemical; conditions: kinetic from iPrOH stock
Protocol: Solubility in Phosphate Buffer and Fed State Simulated Intestinal Fluid (FeSSIF) 8 µL of reference or test compound stock solution (10 mM in iPrOH) was added to 792 μL of 100 mM phosphate buffer (pH 7.4) or FeSSIF (pH 5.8). The resulting mixture was shaken for 1 h (1000 rpm) at room temperature and then centrifuged for 10 min (12 000 rpm) to remove the undissolved particles. The supernatant was collected and diluted 10 times and 100 times separately with 100 mM phosphate buffer or FeSSIF. Five microliters of the supernatant samples (no diluted, 10 times diluted, 100 times diluted) were mixed with 95 μL of acetonitrile (containing internal standard) separately before injecting into LC-MS/MS for analysis. […]

[8] = target: T1, pVHL30 (Homo sapiens, UniProt P40337); assay: Western blot VHL degradation in HEK293 cells; format: cell-based; conditions: HEK293, 4 h, 1 μM
T1 construct: endogenous in cells; host or cells: HEK293 (ATCC)
T1 sequence (P40337 whole entry): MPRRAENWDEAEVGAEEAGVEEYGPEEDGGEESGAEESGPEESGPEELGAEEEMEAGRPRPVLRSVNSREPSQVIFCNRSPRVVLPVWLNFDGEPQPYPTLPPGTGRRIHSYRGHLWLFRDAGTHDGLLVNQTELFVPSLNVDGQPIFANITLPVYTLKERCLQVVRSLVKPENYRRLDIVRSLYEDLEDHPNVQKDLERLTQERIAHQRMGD
Protocol: To further elucidate the mode of action of FerroTAC AS2, we explored its dependency on ubiquitination and proteasome activity.
A) Representative immunoblots of VHL protein levels after treatment of
HEK293 cells. Cells were treated with 0.1% EtOH, 0.1 μM or 1 μM of the indicated compounds for 4 and 24 h.
Controls were included at 1 μM for 24 h. Mean values of two biologically independent experiments.
Representative time-course immunoblots of VHL protein levels after treatment of HEK293 cells treated with
Cells were treated with 0.1% EtOH and controls at 1 μM. Mean values of two biologically
independent experiments. Apparent half-life values (t 1/2) were estimated by fitting band intensity against time
using a single-phase exponential decay model. C) Representative immunoblots of VHL protein levels in
neddylation inhibitor MLN4924 (3 μM) and VHL inhibitor VH032 (50 μM). The amount of EtOH (0.1%) and
DMSO (0.5%) is fixed in all samples. Band quantification was performed using ImageJ software and reported
(in black and black) as relative amount as ratio of each protein band relative to the lane’s loading control
(tubulin). VHL/tubulin protein ratios were normalised to the average of the controls (100%).
HEK293 and HCT116 cell lines, purchased from ATCC, were cultured in Dulbecco’s modified Eagle’s medium (DMEM, Gibco) supplemented with 10% fetal bovine serum (FBS, Gibco), L-glutamine (2 mM, Gibco) and 100 μg/mL of penicillin/streptomycin (Gibco). All cell lines were maintained in a humidified incubator at 37 °C and 5% CO2 for no more than 30 passages. Cells were routinely tested for mycoplasma contamination.
Cell Treatment for Immunoblotting
depending on the experimental setup. Cells were treated in fresh medium with the indicated compounds under indicated conditions with a final EtOH or iPrOH concentration of 0.01% (v/v) to 0.1% (v/v) depending on the experimental setup. […]
stored at −80°C. Protein concentration was determined by bicinchoninic acid (BCA) assay (Thermo Fisher […]
Quantitative Immunoblotting […]

| chromatographic logD [1] | logD [2] | IC50 [3] | CLint scaled at 1 µM ([5]; pH 7.4) | half-life at 1 µM ([5]; pH 7.4, read-out: stability T1/2 in mouse microsome) | half-life at 2 µM [6] | solubility kinetic at 1 h ([7]; FeSSIF pH 5.8, read-out: kinetic solubility FeSSIF (pH 5.8)) | solubility kinetic at 1 h ([7]; phosphate buffer, aqueous buffer, PBS pH 7.4, read-out: kinetic solubility PBS (pH 7.4)) | pVHL30 degradation (in words) [8] | SMILES | cytotoxicity in HEK293 cells (in words) [4] |
| --- | --- | --- | --- | --- | --- | --- | --- | --- | --- | --- |
| 4.1 | 3.8 | 1.33 µM | 2180 mL/min/kg | 2.5 min | 5.78 h | 51.1 µM (≈ 51.2 µg/mL) | 22.4 µM (≈ 22.4 µg/mL) | – | Cc1ncsc1-c1ccc(CNC(=O)C2CC(O)CN2C(=O)C(NC(=O)COCCOCCOCCNC(=O)CC2N=C(c3ccc(Cl)cc3)c3c(sc(C)c3C)-n3c(C)nnc32)C(C)(C)C)cc1 (stereo not shown) [MZ1] | almost no intrinsic cytotoxicity |
| – | – | – | – | – | – | – | – | failed to induce significant degradation | Cc1ncsc1-c1ccc([C@H](C)NC(=O)[C@@H]2C[C@@H](O)CN2C(=O)[C@@H](NC(=O)COCCOCCOCCOCCOCCOCC(=O)N[C@H](C(=O)N2C[C@H](O)C[C@H]2C(=O)N[C@@H](C)c2ccc(-c3scnc3C)cc2)C(C)(C)C)C(C)(C)C)cc1 [MeCM11] | – |
